Here are results for twelve compounds from ChEMBL document CHEMBL1201862, “PubChem BioAssay data set” (2004).

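How tested: cells in 96-well plates exposed to compound for 48 hours at five concentrations. Here, GI50 denotes the concentration required for 50% inhibition of growth.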 Active and inactive are the calls of the source. Cut-off read from the data, not from the text of the source: active = GI50 up to about 1.1 µM and inactive = higher. Bounds are passed on as bounds.

Test systems include HCT-15; IGROV-1; SW-620; HT-29; HCT-116; 786-0; OVCAR-3; HOP-92; SK-MEL-2; SR; SF-295; CAKI-1; OVCAR-8; A498; HOP-62; LOX IMVI; MDA-MB-435; CCRF-CEM; SN12C; DU-145.
Assay in all cases: growth of human tumour cells (NCI), 48 h

For the compound `O=c1c2cc(O)c(O)cc2oc2cc(O)c(C3OC(CO)C(O)C(O)C3O)c(O)c12` (stereo unspecified), the GI50 in the test on HCT-15 is greater than 100 µM; in the test with IGROV-1, > 100 µM (inactive); with SW-620, > 100 µM (inactive); in the test on HT-29 it was > 100 µM (inactive); in the test with HCT-116, > 100 µM (inactive); in the test on 786-0, > 100 µM (inactive). Moreover, the GI50 in the test on OVCAR-3, in the test with HOP-92, in the test with SK-MEL-2, with SR, in the test with SF-295 and in the test with CAKI-1 was > 100 µM (inactive) in each case. For the same compound, the GI50 in the test with OVCAR-8, with A498, with HOP-62, in the test with LOX IMVI, in the test on MDA-MB-435 and in the test on CCRF-CEM was > 100 µM (inactive) throughout.
Take `CN(C)S(=O)(=O)n1ccnc1`: the GI50 with HCT-15 is greater than 100 µM; in the test with IGROV-1, > 100 µM (inactive); in the test on SN12C, > 100 µM (inactive); in the test on SW-620, > 100 µM (inactive); in the test on HCT-116, > 100 µM (inactive); in the test with 786-0 it was > 100 µM (inactive). Further, the GI50 in the test with OVCAR-3, in the test with HOP-92, in the test on SK-MEL-2, in the test with SF-295, in the test with CAKI-1 and with A498 was > 100 µM (inactive) in each case. Moreover, the GI50 with HOP-62, with LOX IMVI and with MDA-MB-435 was > 100 µM (inactive) in each case.
For the compound `COc1ccc(C(N)=O)cc1/N=N/N(C)C`, the GI50 in the test with HCT-15 was greater than 100 µM; with IGROV-1 it was > 100 µM (inactive); in the test with SN12C, > 100 µM (inactive); in the test with SW-620 it was > 100 µM (inactive); in the test on HT-29 it was > 100 µM (inactive); with HCT-116, > 100 µM (inactive). Also, the GI50 in the test with 786-0 was > 100 µM (inactive); in the test on OVCAR-3 it was > 100 µM (inactive); in the test with HOP-92 it was > 100 µM (inactive); with SK-MEL-2 it was > 100 µM (inactive); in the test with SR, 39.8 µM (inactive); in the test with SF-295, > 100 µM (inactive). Also, the GI50 with CAKI-1 is > 100 µM (inactive); in the test with OVCAR-8 it was 78.3 µM (inactive); with A498, > 100 µM (inactive); in the test with HOP-62 it was > 100 µM (inactive); with LOX IMVI, > 100 µM (inactive); in the test with CCRF-CEM, > 100 µM (inactive).
As for `O=C1C=CC(CC(=O)c2ccc3ccccc3c2)O1` (stereo unspecified), the GI50 in the test with HCT-15 is 20.5 µM; in the test on IGROV-1, 29.2 µM (inactive); in the test with SN12C, 18.8 µM (inactive); in the test on SW-620, 26.5 µM (inactive); with HT-29, 19.1 µM (inactive); in the test on HCT-116 it was 17.9 µM (inactive). Further, the GI50 was 21.6 µM (inactive) in the test on 786-0; 25.2 µM (inactive) in the test with OVCAR-3; 28 µM (inactive) in the test on HOP-92; 23.8 µM (inactive) in the test with SK-MEL-2; 30.3 µM (inactive) in the test with SR; > 100 µM (inactive) with SF-295. For the same compound, the GI50 in the test on CAKI-1 was 62.1 µM (inactive); in the test with OVCAR-8, 18.4 µM (inactive); in the test on A498 it was 20 µM (inactive); in the test on HOP-62, 21.5 µM (inactive); in the test with LOX IMVI it was 21 µM (inactive); with CCRF-CEM, 23.2 µM (inactive).
Take `O=c1[nH]cnc(NC2C=C(CO)C(O)C2O)c1[N+](=O)[O-]` (stereo unspecified): the GI50 in the test with HCT-15 is greater than 40.3 µM; with IGROV-1, > 100 µM (inactive); in the test with SN12C it was > 100 µM (inactive); with SW-620, > 43.2 µM (inactive); in the test with HT-29, > 100 µM (inactive); with HCT-116, > 37.7 µM (inactive). Also, the GI50 in the test on 786-0 is > 46.2 µM (inactive); with OVCAR-3, > 100 µM (inactive); in the test with HOP-92 it was > 100 µM (inactive); in the test on SK-MEL-2, > 100 µM (inactive); in the test with SR it was > 100 µM (inactive); in the test with SF-295 it was > 100 µM (inactive). In addition, the GI50 was > 100 µM (inactive) with CAKI-1; > 100 µM (inactive) with OVCAR-8; > 100 µM (inactive) in the test on A498; > 100 µM (inactive) with HOP-62; > 41.2 µM (inactive) with LOX IMVI; > 71.1 µM (inactive) in the test with CCRF-CEM.
For `O=C(O)c1ccc(C2COc3ccc(Cl)cc3C2)cc1` (stereo unspecified), the GI50 with HCT-15 was greater than 100 µM; in the test on IGROV-1, > 100 µM (inactive); in the test on SN12C, > 100 µM (inactive); with SW-620, > 100 µM (inactive); in the test on HT-29, > 100 µM (inactive); with HCT-116 it was > 100 µM (inactive). In addition, the GI50 in the test on 786-0, in the test with OVCAR-3, with HOP-92, in the test on SK-MEL-2, with SR and in the test on SF-295 was > 100 µM (inactive) each time. Also, the GI50 in the test with CAKI-1, in the test with OVCAR-8, with A498, in the test on HOP-62, in the test with LOX IMVI and in the test on CCRF-CEM was > 100 µM (inactive) throughout.
Turning to `N#CC(C#N)=Cc1ccc(C=C2SC3=C(SCCS3)S2)s1`, the GI50 is 0.818 µM with HCT-15; 4.52 µM (inactive) in the test on IGROV-1; 66.2 µM (inactive) in the test on SN12C; 4.38 µM (inactive) in the test on SW-620; > 100 µM (inactive) in the test with DU-145; 3.39 µM (inactive) with HT-29. For the same compound, the GI50 was 3.24 µM (inactive) with HCT-116; 13.4 µM (inactive) in the test with 786-0; 2.5 µM (inactive) in the test with OVCAR-3; 17.6 µM (inactive) in the test on HOP-92; > 100 µM (inactive) in the test with SK-MEL-2; 24.4 µM (inactive) with SF-295. The GI50 in the test with CAKI-1 was 3.47 µM (inactive); in the test on OVCAR-8, 29.9 µM (inactive); with A498, 10.4 µM (inactive); in the test on HOP-62 it was 80.9 µM (inactive); in the test with MDA-MB-435, 0.82 µM (active); in the test on CCRF-CEM it was 2.48 µM (inactive).
Turning to `Nn1c(CCCCCCCCc2nnc(COc3ccccc3)n2N)nnc1COc1ccccc1`, the GI50 is greater than 100 µM in the test with HCT-15; > 100 µM (inactive) with IGROV-1; > 100 µM (inactive) in the test with SN12C; > 100 µM (inactive) in the test on SW-620; > 100 µM (inactive) in the test on DU-145; > 100 µM (inactive) with HT-29. In addition, the GI50 with HCT-116, in the test with 786-0, in the test on HOP-92, in the test on SK-MEL-2, in the test with SF-295 and in the test with CAKI-1 was > 100 µM (inactive) throughout. The GI50 in the test with OVCAR-8, in the test with A498, in the test with HOP-62, in the test with LOX IMVI and in the test with MDA-MB-435 was > 100 µM (inactive) each time.
Turning to `Cc1c(C)c2ccc(OCC(O)COC(C)C)c(C)c2oc1=O` (stereo unspecified), the GI50 with IGROV-1 is 70.6 µM (inactive); in the test with SW-620, 29.4 µM (inactive); in the test on DU-145 it was > 100 µM (inactive); in the test with HT-29, 31 µM (inactive); in the test with HCT-116 it was 18.5 µM (inactive); with 786-0 it was > 10 µM (inactive). In addition, the GI50 with OVCAR-3 was > 100 µM (inactive); in the test with HOP-92, 33.2 µM (inactive); in the test with SK-MEL-2, 20.1 µM (inactive); in the test on SR, 26.7 µM (inactive); with SF-295, 23.5 µM (inactive); with CAKI-1, 41.7 µM (inactive). For the same compound, the GI50 in the test on OVCAR-8 is 28.2 µM (inactive); with HOP-62, 28.7 µM (inactive); with LOX IMVI, 18.7 µM (inactive); with CCRF-CEM, 27.5 µM (inactive).
For the compound `O=C1OC2(c3ccccc3Oc3ccccc32)c2ccccc21`, the GI50 with HCT-15 was greater than 100 µM; in the test with IGROV-1 it was > 100 µM (inactive); with SN12C, > 100 µM (inactive); in the test with SW-620, > 100 µM (inactive); in the test with HT-29 it was > 100 µM (inactive); with HCT-116 it was > 100 µM (inactive). Further, the GI50 with 786-0, with OVCAR-3, with HOP-92, in the test with SK-MEL-2, in the test with SR and in the test on SF-295 was > 100 µM (inactive) throughout. Besides, the GI50 in the test with CAKI-1, with OVCAR-8, in the test with A498, in the test on HOP-62, in the test on LOX IMVI and in the test on CCRF-CEM was > 100 µM (inactive) throughout.
For `Oc1cc(-c2ccc3ccccc3c2)nc2ncc(Cl)cc12`, the GI50 in the test on HCT-15 is 3.57 µM; in the test on IGROV-1 it was 8.09 µM (inactive); with SN12C, 9.06 µM (inactive); in the test on SW-620, 4.12 µM (inactive); in the test on DU-145, 11.4 µM (inactive); in the test on HT-29, 5.66 µM (inactive). In addition, the GI50 is 2.84 µM (inactive) in the test with 786-0; 5.31 µM (inactive) with HOP-92; 7.64 µM (inactive) in the test with SK-MEL-2; 6.15 µM (inactive) with OVCAR-8; 12.1 µM (inactive) in the test with A498; 8.59 µM (inactive) in the test on HOP-62. For the same compound, the GI50 with LOX IMVI was 5.33 µM (inactive); with CCRF-CEM, 3.48 µM (inactive).
With `CCC1(c2ccncc2)CCC(=O)NC1=O` (stereo unspecified) [ROGLETIMIDE], the GI50 with HCT-15 is greater than 100 µM; in the test on IGROV-1 it was > 100 µM (inactive); in the test with SN12C, > 100 µM (inactive); with SW-620 it was > 100 µM (inactive); in the test on HT-29, > 100 µM (inactive); in the test on HCT-116 it was > 100 µM (inactive). In addition, the GI50 with 786-0 was > 100 µM (inactive); in the test on OVCAR-3 it was > 100 µM (inactive); with HOP-92 it was 52.4 µM (inactive); in the test with SK-MEL-2, > 100 µM (inactive); with SR, > 100 µM (inactive); with SF-295, > 100 µM (inactive). For the same compound, the GI50 with CAKI-1, in the test with OVCAR-8, in the test with A498, with HOP-62, in the test on LOX IMVI and in the test with CCRF-CEM was > 100 µM (inactive) in each case.
